Test results published in article PMC12307812 (Nature Communications, 2025).
Like-named read-outs stand apart in the source and are kept apart here.

What was measured:
[1] = test system: pseudovirus bearing S protein of SARS-CoV-1; experiment: organism not typed; assay type: cell-based
[2] = test system: pseudovirus bearing S protein of SARS-CoV-2 lineage EG.5.1; experiment: organism not typed; assay type: cell-based
[3] = test system: pseudovirus bearing S protein of HCoV-NL63; experiment: organism not typed; assay type: cell-based
[4] = test system: vesicular stomatitis virus (VSV); assay type: cell-based; settings: for mean log10(PFU/ml): VSV
[5] = test system: pseudovirus bearing S protein of HCoV-229E; experiment: organism not typed; assay type: cell-based
[6] = test system: pseudovirus bearing S protein of MERS-CoV; experiment: organism not typed; assay type: cell-based
[7] = test system: pseudovirus bearing S protein of SARS-CoV-2 lineage BA.2.86; experiment: organism not typed; assay type: cell-based
[8] = target: T1, Recombinant Human TMPRSS2 (Homo sapiens, UniProt O15393); experiment: TMPRSS2 biochemical assay (Boc-Gln-Ala-Arg-AMC fluorogenic substrate)
T1 construct: human TMPRSS2 residues 106492, N-terminal 6x His-tag; 6x His-tag (N); purchased Cusabio CSB-YP023924HU; host or cells: yeast
Protocol: Inhibitors of TMPRSS2 were tested using a high throughput activity assay. […] TMPRSS2 (5 µl, 0.018 mg/ml) in assay buffer (50 mM Tris pH 8, 150 mM NaCl, 0.01% Tween20) was dispensed to that, using a BioRAPTR (Beckman Coulter), for a total assay volume of 5 µl.
After incubation at room temperature for 1 h, fluorescence was measured. […] Raw plate reads for each titration point were normalized relative to a positive control containing no enzyme (0% activity, full inhibition) and a negative control containing DMSO-only wells (100% activity, basal activity). Data normalization was performed using GraphPad Prism (GraphPad Software, San Diego, CA).
We employed the curve fitting algorithm available in the SciPy package (version 1.10.1)[61] to derive the Hill slope and the IC50 value, along with their corresponding error estimates.

[9] = test system: pseudovirus bearing VSV-G; experiment: organism not typed; assay type: cell-based; settings: Calu-3
[10] = test system: pseudovirus bearing S protein of SARS-CoV-2 lineage B.1.617.2; experiment: organism not typed; assay type: cell-based
[11] = Calu-3, read-out: mean inhibition

T1 sequence (O15393 106-492 limits assumed): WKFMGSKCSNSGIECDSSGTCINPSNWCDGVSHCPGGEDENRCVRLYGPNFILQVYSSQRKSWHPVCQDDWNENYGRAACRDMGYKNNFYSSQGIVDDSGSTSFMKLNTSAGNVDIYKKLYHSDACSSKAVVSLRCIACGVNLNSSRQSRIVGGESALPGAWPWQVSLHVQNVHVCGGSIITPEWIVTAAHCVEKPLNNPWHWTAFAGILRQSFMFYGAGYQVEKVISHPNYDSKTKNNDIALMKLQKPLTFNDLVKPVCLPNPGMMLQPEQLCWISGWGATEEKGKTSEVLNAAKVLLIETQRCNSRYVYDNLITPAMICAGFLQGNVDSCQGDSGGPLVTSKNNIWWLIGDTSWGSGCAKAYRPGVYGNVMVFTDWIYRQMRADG

## CC(C)(C)NC(=O)N1CCN(C(=O)N2C(=O)C(CCCNC(=N)N)C2C(=O)O)CC1 (centres unmarked) [BMS-262084]
[1]; Calu-3, read-out: IC50 estimate, pseudovirus cell entry SARS-1-S
  IC50: 82 ± 23.1 nM
[1]; Calu-3, concentration 0.25 nM
  inhibition at 0.00025 µM: 3.34%
[1]; Calu-3, concentration 2.5 nM
  inhibition at 0.0025 µM: 5.92%
[1]; Calu-3, concentration 25 nM
  inhibition at 0.025 µM: 31.7%
[1]; Calu-3, concentration 250 nM
  inhibition at 0.25 µM: 73.6%
[1]; Calu-3, concentration 2500 nM
  inhibition at 2.5 µM: 80.6%
[1]; Calu-3, concentration 25000 nM
  inhibition at 25 µM: 91.7%
[2]; Calu-3, EG.5.1, concentration 0.25 nM
  inhibition at 0.00025 µM: 10.3%
[2]; Calu-3, EG.5.1, concentration 2.5 nM
  inhibition at 0.0025 µM: 16.8%
[2]; Calu-3, EG.5.1, concentration 25 nM
  inhibition at 0.025 µM: 26.9%
[2]; Calu-3, EG.5.1, concentration 250 nM
  inhibition at 0.25 µM: 51.3%
[2]; Calu-3, EG.5.1, concentration 2500 nM
  inhibition at 2.5 µM: 58.1%
[2]; Calu-3, EG.5.1, concentration 25000 nM
  inhibition at 25 µM: 57.8%
[2]; Calu-3 cells
  fold less efficient inhibition of EG.5.1-S entry compared to B.1-S, B.1.617.2-S or BA.2.86-S: 20–50 fold
[2]; Calu-3 cells, Fig. 4g, read-out: IC50 estimate, pseudovirus cell entry EG.5.1
  IC50: 1200 ± 763 nM
[2]; Calu-3 cells, read-out: IC50, EG.5.1-S protein-driven Calu-3 cell entry
  IC50: 1200 nM
[3]; Calu-3, read-out: IC50 estimate, pseudovirus cell entry NL63-S
  IC50: 432 ± 223 nM
[3]; [11]
  inhibition at 0.00025 µM: -0.475%
  inhibition at 0.0025 µM: 8.77%
  inhibition at 0.025 µM: 16.9%
  inhibition at 0.25 µM: 57.8%
  inhibition at 2.5 µM: 66.8%
  inhibition at 25 µM: 73.5%
[4]
  effect on VSV infection: not affected
[4]; concentration 5 nM
  mean log10(PFU/ml): 9.0266 log10(PFU/ml)
[4]; concentration 50 nM
  mean log10(PFU/ml): 9.0323 log10(PFU/ml)
[4]; concentration 500 nM
  mean log10(PFU/ml): 9.005 log10(PFU/ml)
[4]; concentration 5000 nM
  mean log10(PFU/ml): 9 log10(PFU/ml)
[4]; concentration 50000 nM
  mean log10(PFU/ml): 9.006 log10(PFU/ml)
[5]; Calu-3, read-out: IC50 estimate, pseudovirus cell entry 229E-S
  IC50: 990 ± 209 nM
[5]; [11]
  inhibition at 0.00025 µM: 0.992%
  inhibition at 0.0025 µM: 8.96%
  inhibition at 0.025 µM: 22%
  inhibition at 0.25 µM: 42.2%
  inhibition at 2.5 µM: 58.4%
  inhibition at 25 µM: 72.2%
[6]; Calu-3, read-out: IC50 estimate, pseudovirus cell entry MERS-S
  IC50: 101 ± 24.2 nM
[6]; Calu-3, concentration 0.25 nM
  inhibition at 0.00025 µM: 0.787%
[6]; Calu-3, concentration 2.5 nM
  inhibition at 0.0025 µM: -4.71%
[6]; Calu-3, concentration 25 nM
  inhibition at 0.025 µM: 29.1%
[6]; Calu-3, concentration 250 nM
  inhibition at 0.25 µM: 67.2%
[6]; Calu-3, concentration 2500 nM
  inhibition at 2.5 µM: 89.3%
[6]; Calu-3, concentration 25000 nM
  inhibition at 25 µM: 93%
[7]; Calu-3, BA.2.86, concentration 0.25 nM
  inhibition at 0.00025 µM: 2.76%
[7]; Calu-3, BA.2.86, concentration 2.5 nM
  inhibition at 0.0025 µM: 1.45%
[7]; Calu-3, BA.2.86, concentration 25 nM
  inhibition at 0.025 µM: 44.5%
[7]; Calu-3, BA.2.86, concentration 250 nM
  inhibition at 0.25 µM: 74.7%
[7]; Calu-3, BA.2.86, concentration 2500 nM
  inhibition at 2.5 µM: 89.7%
[7]; Calu-3, BA.2.86, concentration 25000 nM
  inhibition at 25 µM: 98.9%
[7]; Calu-3 cells, read-out: IC50, pseudovirus cell entry BA.2.86
  IC50: 48.2 nM
[8]; concentration 0.0752671 nM
  inhibition at 75.27 pM: 1.73%
[8]; concentration 0.225801 nM
  inhibition at 0.000225801 µM: 16.6%
[8]; concentration 0.677404 nM
  inhibition at 0.000677404 µM: 22.3%
[8]; concentration 2.03221 nM
  inhibition at 0.00203221 µM: 54.4%
[8]; concentration 6.09663 nM
  inhibition at 0.00609663 µM: 77.8%
[8]; concentration 18.2899 nM
  inhibition at 0.0182899 µM: 91.4%
[8]; concentration 54.8697 nM
  inhibition at 0.0548697 µM: 94.8%
[8]; concentration 164.609 nM
  inhibition at 0.164609 µM: 99.3%
[8]; concentration 493.827 nM
  inhibition at 0.493827 µM: 97.2%
[8]; concentration 1481.48 nM
  inhibition at 1.48148 µM: 99%
[8]; concentration 4444.44 nM
  inhibition at 4.44444 µM: 98%
[8]; concentration 13333.3 nM
  inhibition at 13.3333 µM: 98.8%
[8]; concentration 40000 nM
  inhibition at 40 µM: 93.2%
[8]; read-out: IC50, inhibition in TMPRSS2 biochemical assay
  IC50: 1.82 nM
[9]; concentration 0.25 nM
  inhibition at 0.00025 µM: 2.19%
[9]; concentration 2.5 nM
  inhibition at 0.0025 µM: 1.17%
[9]; concentration 25 nM
  inhibition at 0.025 µM: 1.08%
[9]; concentration 250 nM
  inhibition at 0.25 µM: 0.456%
[9]; concentration 2500 nM
  inhibition at 2.5 µM: 0.565%
[9]; concentration 25000 nM
  inhibition at 25 µM: -2.28%
[10]; Calu-3, B.1.617.2, concentration 0.25 nM
  inhibition at 0.00025 µM: -3.95%
[10]; Calu-3, B.1.617.2, concentration 2.5 nM
  inhibition at 0.0025 µM: 6%
[10]; Calu-3, B.1.617.2, concentration 25 nM
  inhibition at 0.025 µM: 32.3%
[10]; Calu-3, B.1.617.2, concentration 250 nM
  inhibition at 0.25 µM: 82.7%
[10]; Calu-3, B.1.617.2, concentration 2500 nM
  inhibition at 2.5 µM: 96.1%
[10]; Calu-3, B.1.617.2, concentration 25000 nM
  inhibition at 25 µM: 96.1%
[10]; Calu-3 cells, read-out: IC50, pseudovirus cell entry B.1.617.2
  IC50: 52.5 nM
